Experimental data taken from PubChem BioAssay (NCI).
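Step 1: Grow cells in 96-well plates. Step 2: Expose to compound for 48 hours at 5 concentrations. Step 3: Interpolate endpoints linearly; if unreached, use highest concentration. Abbreviation: GI50, concentration required for 50% inhibition of growth. Definition used: TGI = concentration required for complete inhibition of growth.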

Key:
Assay in all cases: NCI-60 cell line screen, 48 h
[1] = tested on: 786-0 renal
[2] = tested on: A549 NSCLC
[3] = tested on: COLO 205 colon
[4] = tested on: KM12 colon
[5] = tested on: OVCAR-4 ovarian
[6] = tested on: OVCAR-5 ovarian
[7] = tested on: RXF 393 renal
[8] = tested on: SF-295 CNS
[9] = tested on: SK-MEL-2 melanoma
[10] = tested on: SNB-75 CNS

N#CC(C#N)=Cc1c(-c2ccccc2)[nH]c2ccccc12
GI50 [1]: 8.55 µM | TGI [1]: > 64.1 µM | GI50 [2]: 4.62 µM | TGI [2]: > 100 µM | GI50 [3]: 1.76 µM | TGI [3]: 15 µM | GI50 [4]: 0.66 µM | TGI [4]: 27.5 µM | GI50 [5]: 5.22 µM | TGI [5]: > 100 µM | GI50 [6]: 19.6 µM | TGI [6]: > 100 µM | GI50 [7]: 3.33 µM | TGI [7]: > 33.3 µM | GI50 [8]: 1.59 µM | TGI [8]: 15.5 µM | GI50 [9]: 19.1 µM | TGI [9]: > 70.6 µM | GI50 [10]: 2 µM | TGI [10]: 14.3 µM

NC1=NC(c2ccc(Cl)cc2)N(c2ccc(S(=O)(=O)Nc3ncccn3)cc2)C(N)=N1 (centres undefined)
TGI [1]: > 100 µM | TGI [2]: > 100 µM | TGI [3]: > 100 µM | TGI [4]: > 100 µM | TGI [5]: > 100 µM | TGI [6]: > 100 µM | TGI [7]: > 100 µM | TGI [8]: > 100 µM | TGI [9]: > 100 µM | TGI [10]: > 100 µM

N#CCCN(CCC#N)C(=O)c1cccc(C(=O)N(CCC#N)CCC#N)c1
TGI [1]: > 100 µM | TGI [2]: > 100 µM | TGI [3]: > 100 µM | TGI [4]: > 100 µM | TGI [5]: > 100 µM | TGI [6]: > 100 µM | TGI [7]: 9.76 µM | TGI [8]: > 100 µM | TGI [9]: > 100 µM | TGI [10]: > 59.3 µM

[C-]#[O+].[Cl][Sn]([Cl])[Cl].[Cl][Sn]([Cl])[Cl].[Pt].c1ccc([PH+](c2ccccc2)c2ccccc2)cc1.c1ccc([PH+](c2ccccc2)c2ccccc2)cc1
GI50 [1]: 53.5 µM | TGI [1]: > 100 µM | GI50 [2]: 44.1 µM | TGI [2]: > 100 µM | GI50 [3]: > 100 µM | TGI [3]: > 100 µM | GI50 [4]: 42.3 µM | TGI [4]: > 100 µM | GI50 [5]: 56.1 µM | TGI [5]: > 100 µM | GI50 [6]: 88 µM | TGI [6]: > 100 µM | GI50 [7]: 1.57 µM | TGI [7]: 9.82 µM | GI50 [8]: 71.5 µM | TGI [8]: > 100 µM | GI50 [9]: 34 µM | TGI [9]: > 100 µM | GI50 [10]: > 100 µM | TGI [10]: > 100 µM

CC1=CCC2(C#N)CCC1C2O (centres undefined)
TGI [1]: > 100 µM | TGI [2]: > 100 µM | TGI [3]: > 100 µM | TGI [4]: > 100 µM | TGI [5]: > 100 µM | TGI [6]: > 100 µM | TGI [7]: > 100 µM | TGI [8]: > 100 µM | TGI [9]: > 100 µM | TGI [10]: > 100 µM

COc1cc(/C=N/Nc2ncnc3c2cnn3C(C)C)ccc1O
GI50 [1]: 10.8 µM | TGI [1]: > 25 µM | GI50 [2]: 9.92 µM | TGI [2]: > 25 µM | GI50 [3]: 12.2 µM | TGI [3]: > 25 µM | GI50 [4]: 6.2 µM | TGI [4]: 24.7 µM | GI50 [5]: 14.4 µM | TGI [5]: > 25 µM | GI50 [6]: 8.83 µM | TGI [6]: > 25 µM | GI50 [7]: 4.66 µM | TGI [7]: 12.7 µM | GI50 [8]: 9.41 µM | TGI [8]: > 25 µM | GI50 [9]: 6.82 µM | TGI [9]: 18.7 µM | GI50 [10]: 0.506 µM | TGI [10]: 9.57 µM

Cc1nc2ccccc2c(=O)n1/N=C(\N=Nc1cc(Cl)ccc1Cl)c1cccc(-c2ccco2)c1
TGI [1]: > 100 µM | TGI [2]: > 100 µM | TGI [3]: > 100 µM | TGI [4]: > 100 µM | TGI [5]: > 100 µM | TGI [6]: > 100 µM | TGI [7]: > 100 µM | TGI [8]: > 100 µM | TGI [9]: > 100 µM | TGI [10]: > 100 µM

O=C(c1ccccc1)C(c1ccccc1)C1(O)C(=O)Nc2ccccc21 (centres undefined)
TGI [1]: > 100 µM | TGI [2]: > 100 µM | TGI [3]: > 100 µM | TGI [5]: > 100 µM | TGI [6]: > 100 µM | TGI [7]: > 100 µM | TGI [8]: > 100 µM | TGI [9]: > 100 µM | TGI [10]: > 100 µM

Cc1cc2cccnc2c2ncccc12
GI50 [1]: 0.77 µM | TGI [1]: 5.97 µM | GI50 [2]: 0.949 µM | TGI [2]: 10.6 µM | GI50 [3]: 3.4 µM | TGI [3]: 11.5 µM | GI50 [4]: 0.78 µM | TGI [4]: 18.4 µM | GI50 [5]: 0.418 µM | TGI [5]: 14.8 µM | GI50 [6]: 1.35 µM | TGI [6]: 42.1 µM | GI50 [7]: 1.89 µM | TGI [7]: 6.77 µM | GI50 [8]: 0.555 µM | TGI [8]: 4.57 µM | GI50 [9]: 2.38 µM | TGI [9]: 31.9 µM | GI50 [10]: 3.24 µM | TGI [10]: > 100 µM
